Results taken from the supplement of paper PMC6045584.
± gives the standard deviation of the averaged measurements.

Legend:
[1] = compound: O=c1[nH]cc(F)c(=O)[nH]1 [FLUOROURACIL]; assay: surviving fraction relative to DMSO-only wells; higher = less growth inhibition; conditions: exposure time: 5 days
Procedure, shortened: (§1)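 Viability was determined by CellTiter-Glo luminescence, expressed as surviving fraction normalised to the median of DMSO-only wells. The cells were log-phase tumour cell lines seeded at 250–500 per well in 384-well plates and, after 24 hours, exposed continuously for five days to inhibitors at 0.5, 1, 5, 10, 50, 100, 500 and 1000 nM. Three screens per line were run, keeping only lines with replicate Pearson r >0.7 and median Z' >0.3.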

[2] = compound: CN(C)CC[C@H](CSc1ccccc1)Nc1ccc(S(=O)(=O)NC(=O)c2ccc(N3CCN(Cc4ccccc4-c4ccc(Cl)cc4)CC3)cc2)cc1[N+](=O)[O-] [ABT-737]; assay: as above; conditions: exposure time: 5 days
Procedure, shortened: as §1

Test System | surviving fraction ([1]; 0.5 nM) | surviving fraction ([1]; 1 nM) | surviving fraction ([1]; 5 nM) | surviving fraction ([1]; 10 nM) | surviving fraction ([1]; 50 nM) | surviving fraction ([1]; 100 nM) | surviving fraction ([1]; 500 nM) | surviving fraction ([1]; 1000 nM) | surviving fraction ([2]; 0.5 nM) | surviving fraction ([2]; 1 nM) | surviving fraction ([2]; 5 nM) | surviving fraction ([2]; 10 nM) | surviving fraction ([2]; 50 nM) | surviving fraction ([2]; 100 nM) | surviving fraction ([2]; 500 nM) | surviving fraction ([2]; 1000 nM)
HUO3N1 BONE | 1 ± 0.047 | 1.06 ± 0.02 | 1.09 ± 0.031 | 1.07 ± 0.05 | 1.03 ± 0.059 | 0.99 ± 0.046 | 0.973 ± 0.036 | 0.91 ± 0.029 | 1.03 ± 0.027 | 1.07 ± 0.012 | 1.1 ± 0.041 | 1.1 ± 0.035 | 1.09 ± 0.074 | 1.05 ± 0.039 | 0.994 ± 0.064 | 0.943 ± 0.02
JIMT1 BREAST | 0.932 ± 0.0056 | 0.899 ± 0.021 | 0.979 ± 0.033 | 0.9068 ± 0.0066 | 0.94 ± 0.038 | 0.884 ± 0.062 | 0.948 ± 0.066 | 0.866 ± 0.076 | 1.02 ± 0.048 | 1.05 ± 0.016 | 1.019 ± 0.0045 | 1.018 ± 0.0065 | 1.04 ± 0.037 | 1.07 ± 0.06 | 1.06 ± 0.054 | 1.08 ± 0.032
JURKAT HAEMATOPOIETIC AND LYMPHOID TISSUE | 1.14 ± 0.028 | 1.09 ± 0.0023 | 1.09 ± 0.049 | 1.09 ± 0.016 | 1.04 ± 0.069 | 1.03 ± 0.061 | 1.07 ± 0.022 | 0.842 ± 0.057 | 1.04 ± 0.026 | 1.04 ± 0.029 | 1.05 ± 0.024 | 1.02 ± 0.028 | 0.949 ± 0.025 | 0.932 ± 0.035 | 0.752 ± 0.041 | 0.549 ± 0.0064
KPD BONE | 0.982 ± 0.018 | 0.922 ± 0.052 | 1.02 ± 0.07 | 1.03 ± 0.044 | 1.05 ± 0.048 | 1.02 ± 0.051 | 0.9797 ± 0.0032 | 0.926 ± 0.022 | 1.06 ± 0.038 | 1.02 ± 0.049 | 1.11 ± 0.03 | 1.13 ± 0.069 | 1.07 ± 0.017 | 1.12 ± 0.21 | 0.839 ± 0.023 | 0.691 ± 0.042
LM7 BONE | 0.976 ± 0.039 | 0.992 ± 0.027 | 1.05 ± 0.043 | 1.01 ± 0.047 | 0.851 ± 0.057 | 0.856 ± 0.077 | 0.73 ± 0.079 | 0.628 ± 0.083 | 0.97 ± 0.065 | 1.03 ± 0.09 | 1.11 ± 0.04 | 1.1 ± 0.096 | 1.08 ± 0.061 | 1.13 ± 0.057 | 0.921 ± 0.095 | 0.905 ± 0.043
LNCAP PROSTATE | 1.07 ± 0.039 | 1.17 ± 0.076 | 1.07 ± 0.11 | 1.05 ± 0.043 | 1.17 ± 0.022 | 1.12 ± 0.021 | 0.964 ± 0.18 | 0.73 ± 0.11 | 0.971 ± 0.034 | 0.971 ± 0.041 | 0.932 ± 0.065 | 0.882 ± 0.025 | 0.973 ± 0.035 | 0.932 ± 0.04 | 0.914 ± 0.05 | 0.856 ± 0.1
MCF7 BREAST | 0.929 ± 0.055 | 0.907 ± 0.043 | 0.93 ± 0.035 | 0.893 ± 0.027 | 0.973 ± 0.11 | 0.986 ± 0.032 | 0.837 ± 0.054 | 0.707 ± 0.033 | 0.9422 ± 0.0083 | 0.957 ± 0.048 | 0.993 ± 0.02 | 1 ± 0.039 | 1.02 ± 0.052 | 1.02 ± 0.044 | 0.985 ± 0.02 | 1 ± 0.022
MDAMB134 BREAST | 0.823 ± 0.042 | 0.964 ± 0.16 | 0.832 ± 0.082 | 0.877 ± 0.18 | 0.745 ± 0.094 | 0.744 ± 0.12 | 0.748 ± 0.0042 | 0.714 ± 0.016 | 1.1 ± 0.12 | 0.848 ± 0.18 | 0.786 ± 0.071 | 0.831 ± 0.016 | 0.908 ± 0.096 | 0.914 ± 0.063 | 0.764 ± 0.04 | 0.471 ± 0.033
MDAMB157 BREAST | 0.981 ± 0.019 | 0.969 ± 0.12 | 1.05 ± 0.055 | 1.05 ± 0.1 | 1.02 ± 0.03 | 0.978 ± 0.017 | 0.943 ± 0.044 | 0.836 ± 0.059 | 1.02 ± 0.026 | 0.995 ± 0.13 | 0.952 ± 0.069 | 0.964 ± 0.062 | 1.01 ± 0.032 | 1.01 ± 0.057 | 0.938 ± 0.028 | 0.893 ± 0.059
MDAMB231 BREAST | 0.978 ± 0.019 | 0.947 ± 0.014 | 0.975 ± 0.039 | 0.972 ± 0.022 | 0.961 ± 0.035 | 0.914 ± 0.041 | 0.986 ± 0.021 | 0.865 ± 0.022 | 1 ± 0.031 | 0.99 ± 0.018 | 1.01 ± 0.014 | 1.01 ± 0.018 | 1.02 ± 0.041 | 1.01 ± 0.03 | 1 ± 0.018 | 0.941 ± 0.02
MDAMB361 BREAST | 0.725 ± 0.094 | 0.747 ± 0.067 | 0.8 ± 0.092 | 0.758 ± 0.12 | 0.537 ± 0.042 | 0.618 ± 0.027 | 0.704 ± 0.08 | 0.65 ± 0.061 | 0.853 ± 0.098 | 0.812 ± 0.15 | 0.815 ± 0.058 | 0.921 ± 0.11 | 0.871 ± 0.032 | 0.909 ± 0.085 | 0.843 ± 0.055 | 0.846 ± 0.086
